Experimental data reported in patent US4283329A, “Pharmacologically active peptides” (Eli Lilly and Company, priority 1979, dated 1981).
Where a SMILES comes first, the peptide text is derived from it. [ ]: non-standard residue; d: D form. Phe(4-F) = N[C@@H](Cc1ccc(F)cc1)C(=O)O; NMeM = CN[C@@H](CCSC)C(=O)O

Experiments:
[1] = test system: mouse; experiment: mouse hot plate test (analgesic activity); type: in vivo; conditions: subcutaneous, hot plate 52° C., 15 minutes after administration, latency until jump
Protocol: In this test, a mouse is placed inside on upright acrylic cylinder comprising, as its base, a hot plate surface which is maintained at 52° C. The mouse is given, orally or by subcutaneous injection, a predetermined amount of test compound dissolved or suspended in a suitable carrier, and, 15 minutes after administration of the test compound, the mouse is placed on the hot plate surface. The latency in seconds until the mouse jumps from the hot plate surface is measured. […] This must occur in a dose range which produces no motor incoordination or incapacitation. The following Table records the ED50 results obtained from this test.

[2] = administered parenterally; cited from earlier work

Q: Which “Analgesic Activity, Hot Plate Test, ED50” value [1] does the source give for `CSCC[C@@H](C(N)=O)N(C)C(=O)[C@H](Cc1ccc(F)cc1)NC(=O)CNC(=O)[C@@H](C)NC(=O)[C@@H](N)Cc1ccc(O)cc1` [Example 1, L-Tyrosyl-D-alanyl glycyl-L-p-fluorophenylalanyl-L-(N^α -methyl)methionin amide] here?
A: The value was 0.023 mg/kg.

Q: Which “Analgesic Activity, Hot Plate Test, ED50” value [1] does the source give for `COc1ccc([C@H](NC(=O)[C@H](Cc2ccc(F)cc2)NC(=O)CNC(=O)[C@@H](C)NC(=O)[C@@H](N)Cc2ccc(O)cc2)C(N)=O)cc1` [Example 2, L-Tyrosyl-D-alanyl-glycyl-L-p-fluorophenylalanyl-L-p-methoxyphenylglycinamide] here?
A: Its value is 1.04 mg/kg.

Q: Which “Analgesic Activity, Hot Plate Test, ED50” value [1] does the source give for `C[C@@H](NC(=O)[C@@H](N)Cc1ccc(O)cc1)C(=O)NCC(=O)N[C@@H](Cc1ccc(F)cc1)C(=O)N[C@@H](C(N)=O)c1ccccc1` [Example 3 D-Pgl, L-Tyrosyl-D-alanyl-glycyl-L-p-fluorophenylalanyl-D-phenylglycinamide] here?
A: Its value is 0.103 mg/kg.

Q: For `C[C@@H](NC(=O)[C@@H](N)Cc1ccc(O)cc1)C(=O)NCC(=O)N[C@@H](Cc1ccc(F)cc1)C(=O)N[C@H](C(N)=O)c1ccccc1` [Example 3 L-Pgl, L-Tyrosyl-D-alanyl-glycyl-L-p-fluorophenylalanyl-L-phenylglycinamide], which “Analgesic Activity, Hot Plate Test, ED50” value [1] is on record?
A: Its value is 0.063 mg/kg.

Q: Which “Analgesic Activity, Hot Plate Test, ED50” value [1] does the source give for `CSCC[C@@H](C(N)=O)N(C)C(=O)[C@H](Cc1ccc(F)cc1)NC(=O)CNC(=O)[C@H](NC(=O)[C@@H](N)Cc1ccc(O)cc1)[C@H](C)O` [Example 4, L-Tyrosyl-D-threonylglycyl-L-p-fluorophenylalanyl-L-(N^α -methyl)methioninamide] (H-Y[dT]G[Phe(4-F)][NMeM]-NH2) here?
A: The value was 0.088 mg/kg.

Q: With “H-Tyr-Gly-Gly-Phe-Leu-OH [leucine enkephalin]” as the compound, how does the analgesic activity [2] read?
A: The analgesic activity was “practically devoid of any useful analgesic activity”.

Q: Which analgesic activity [2] does the source give for “H-Tyr-Gly-Gly-Phe-Met-OH [methionine enkephalin]” here?
A: Its analgesic activity is “practically devoid of any useful analgesic activity”.
